Reference: the supplement of paper PMC11061612

Tests used:
Carboplatin = compound: C1CC(C1)(C(=O)[O-])C(=O)[O-].N.N.[Pt+2] [Carboplatin]; settings: max 10 µM
How it was run: (§1)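 Cancer cell lines were dosed for 72 hours (final DMSO typically 0.2%) after 24 hours at 37°C and 5% CO2 in 1536-well plates containing 7.5 μl DMEM/F12 or RPMI with 10% FBS. Viability came from CellTiter-Glo 2.0 luminescence, scaled between blank-well and DMSO-well means, and dose responses were fitted to a two-parameter logistic curve with a non-linear mixed effects model. The single-agent IC50 was obtained from this fit.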

AZD5363 = compound: C1CN(CCC1(C(=O)N[C@@H](CCO)C2=CC=C(C=C2)Cl)N)C3=NC=NC4=C3C=CN4 [AZD5363]; settings: max 10 µM
How it was run: as §1

AZD1775 = compound: C=CCn1c(=O)c2cnc(Nc3ccc(N4CCN(C)CC4)cc3)nc2n1-c1cccc(C(C)(C)O)n1 [AZD1775]
How it was run: as §1

Trametinib = compound: CC(=O)Nc1cccc(-n2c(=O)n(C3CC3)c(=O)c3c(Nc4ccc(I)cc4F)n(C)c(=O)c(C)c32)c1 [Trametinib]; settings: max 1 µM
How it was run: as §1

Paclitaxel = compound: CC(=O)O[C@H]1C(=O)[C@@]2(C)[C@H]([C@H](OC(=O)c3ccccc3)[C@]3(O)C[C@H](OC(=O)[C@H](O)[C@@H](NC(=O)c4ccccc4)c4ccccc4)C(C)=C1C3(C)C)[C@]1(OC(C)=O)CO[C@@H]1C[C@@H]2O [Paclitaxel]; settings: max 3 µM
How it was run: as §1

Palbociclib = compound: CC(=O)c1c(C)c2cnc(Nc3ccc(N4CCNCC4)cn3)nc2n(C2CCCC2)c1=O [Palbociclib]; settings: max 10 µM
How it was run: as §1

AZD1390 = compound: CC(C)n1c(=O)n(C)c2cnc3cc(F)c(-c4ccc(OCCCN5CCCCC5)nc4)cc3c21 [AZD1390]; settings: max 0.3 µM
How it was run: as §1

Venetoclax = compound: CC1(C)CCC(CN2CCN(c3ccc(C(=O)NS(=O)(=O)c4ccc(NCC5CCOCC5)c([N+](=O)[O-])c4)c(Oc4cnc5[nH]ccc5c4)c3)CC2)=C(c2ccc(Cl)cc2)C1 [Venetoclax]; settings: max 1 µM
How it was run: as §1

Dasatinib = compound: CC1=C(C(=CC=C1)Cl)NC(=O)C2=CN=C(S2)NC3=CC(=NC(=N3)C)N4CCN(CC4)CCO [Dasatinib]; settings: max 2 µM
How it was run: as §1

SG3199 = compound: CC1=CN2[C@@H](C1)C=NC3=CC(=C(C=C3C2=O)OC)OCCCCCOC4=C(C=C5C(=C4)N=C[C@@H]6CC(=CN6C5=O)C)OC [SG3199]; settings: max 0.001 µM
How it was run: as §1

AZD2811 = compound: CCN(CCO)CCCOc1ccc2c(Nc3cc(CC(=O)Nc4cccc(F)c4)[nH]n3)ncnc2c1 [AZD2811]; settings: max 1 µM
How it was run: as §1

SN-38 = compound: CCc1c2c(nc3ccc(O)cc13)-c1cc3c(c(=O)n1C2)COC(=O)[C@]3(O)CC [SN-38]; settings: max 0.3 µM
How it was run: as §1

AZD0156 = compound: CN(C)CCCOc1ccc(-c2ccc3ncc4c(c3c2)n(C2CCOCC2)c(=O)n4C)cn1 [AZD0156]
How it was run: as §1

AZD4320 = compound: CN(CC[C@H](CSC1=CC=CC=C1)NC2=C(C=C(C=C2)S(=O)(=O)NC(=O)C3=CC=C(C=C3)N4CCC(CC4)[C@H](C5=CC=CC=C5C6=CC=C(C=C6)Cl)O)S(=O)(=O)C(F)(F)F)CCO [AZD4320]; settings: max 1 µM
How it was run: as §1

Alisertib = compound: COc1cc(Nc2ncc3c(n2)-c2ccc(Cl)cc2C(c2c(F)cccc2OC)=NC3)ccc1C(=O)O [Alisertib]; settings: max 10 µM
How it was run: as §1

Etoposide = compound: COc1cc([C@@H]2c3cc4c(cc3[C@@H](O[C@@H]3O[C@@H]5CO[C@@H](C)O[C@H]5[C@H](O)[C@H]3O)[C@H]3COC(=O)[C@H]23)OCO4)cc(OC)c1O [Etoposide]; settings: max 10 µM
How it was run: as §1

Gefitinib = compound: COc1cc2ncnc(Nc3ccc(F)c(Cl)c3)c2cc1OCCCN1CCOCC1 [Gefitinib]; settings: max 10 µM
How it was run: as §1

Prexasertib = compound: COc1cccc(OCCCN)c1-c1cc(Nc2cnc(C#N)cn2)n[nH]1 [Prexasertib]; settings: max 1 µM
How it was run: as §1

Doxorubicin = compound: COc1cccc2c1C(=O)c1c(O)c3c(c(O)c1C2=O)C[C@@](O)(C(=O)CO)C[C@@H]3O[C@H]1C[C@H](N)[C@H](O)[C@H](C)O1 [Doxorubicin]; settings: max 1 µM
How it was run: as §1

AZD5153 = compound: COc1nnc2ccc(N3CCC(c4ccc(OCCN5CCN(C)C(=O)[C@H]5C)cc4)CC3)nn12 [AZD5153]; settings: max 1 µM
How it was run: as §1

Lapatinib = compound: CS(=O)(=O)CCNCc1ccc(-c2ccc3ncnc(Nc4ccc(OCc5cccc(F)c5)c(Cl)c4)c3c2)o1 [Lapatinib]; settings: max 10 µM
How it was run: as §1

AZD8186 = compound: C[C@@H](Nc1cc(F)cc(F)c1)c1cc(C(=O)N(C)C)cc2c(=O)cc(N3CCOCC3)oc12 [AZD8186]; settings: max 10 µM
How it was run: as §1

Crizotinib = compound: C[C@@H](Oc1cc(-c2cnn(C3CCNCC3)c2)cnc1N)c1c(Cl)ccc(F)c1Cl [Crizotinib]; settings: max 10 µM
How it was run: as §1

Savolitinib = compound: C[C@@H](c1ccc2nccn2c1)n1nnc2ncc(-c3cnn(C)c3)nc21 [Savolitinib]; settings: max 1 µM
How it was run: as §1

AZD6738 = compound: C[C@@H]1COCCN1C2=NC(=NC(=C2)C3(CC3)[S@](=N)(=O)C)C4=C5C=CNC5=NC=C4 [AZD6738]; settings: max 10 µM
How it was run: as §1

AZD5991 = compound: Cc1c2c(nn1C)CSCc1cc(n(C)n1)CSc1cc(c3ccccc3c1)OCCCc1c(C(=O)O)n(C)c3c-2c(Cl)ccc13 [AZD5991]; settings: max 1 µM
How it was run: as §1

AZD7648 = compound: Cc1cc2ncnn2cc1Nc1ncc2c(n1)n(C1CCOCC1)c(=O)n2C [AZD7648]; settings: max 10 µM
How it was run: as §1

Taselisib = compound: Cc1nc(-c2cn3c(n2)-c2ccc(-c4cnn(C(C)(C)C(N)=O)c4)cc2OCC3)n(C(C)C)n1 [Taselisib]; settings: max 10 µM
How it was run: as §1

Selumetinib = compound: Cn1cnc2c(F)c(Nc3ccc(Br)cc3Cl)c(C(=O)NOCCO)cc21 [Selumetinib]; settings: max 10 µM
How it was run: as §1

SRA737 = compound: N#Cc1cnc(Nc2cc(NC[C@H]3CNCCO3)c(C(F)(F)F)cn2)cn1 [SRA737]; settings: max 10 µM
How it was run: as §1

MK-2206 = compound: NC1(c2ccc(-c3nc4ccn5c(=O)[nH]nc5c4cc3-c3ccccc3)cc2)CCC1 [MK-2206]; settings: max 10 µM
How it was run: as §1

Gemcitabine = compound: Nc1ccn([C@@H]2O[C@H](CO)[C@@H](O)C2(F)F)c(=O)n1 [Gemcitabine]; settings: max 0.3 µM
How it was run: as §1

[1] = compound: O=C(Nc1ccc2[nH]nc(-c3ccncc3)c2c1)[C@@H]1CCN(CC(=O)N2CCN(c3ccc(-c4ncccn4)cc3)CC2)C1; settings: max 5 µM
How it was run: as §1

Olaparib = compound: O=C(c1cc(Cc2n[nH]c(=O)c3ccccc23)ccc1F)N1CCN(C(=O)C2CC2)CC1 [Olaparib]; settings: max 10 µM
How it was run: as §1

5-Fluorouracil = compound: O=c1[nH]cc(F)c(=O)[nH]1 [5-Fluorouracil]; settings: max 20 µM
How it was run: as §1

Cell Line: SW48 (Colorectal Carcinoma)
- IC50, cell viability 72 h (Carboplatin): > 10 µM
- IC50, cell viability 72 h (AZD5363): > 10 µM
- IC50, cell viability 72 h (AZD1775; max 1 µM): > 1 µM
- IC50, cell viability 72 h (Trametinib): 0.123 µM
- IC50, cell viability 72 h (Paclitaxel): 0.00337 µM
- IC50, cell viability 72 h (Palbociclib): > 10 µM
- IC50, cell viability 72 h (AZD1390): > 0.3 µM
- IC50, cell viability 72 h (Venetoclax): > 1 µM
- IC50, cell viability 72 h (Dasatinib): > 2 µM
- IC50, cell viability 72 h (SG3199): > 0.001 µM
- IC50, cell viability 72 h (AZD2811): 0.0239 µM
- IC50, cell viability 72 h (SN-38): 0.0133 µM
- IC50, cell viability 72 h (AZD0156; max 1 µM): > 1 µM
- IC50, cell viability 72 h (AZD4320): > 1 µM
- IC50, cell viability 72 h (Alisertib): 0.0584 µM
- IC50, cell viability 72 h (Etoposide): 0.517 µM
- IC50, cell viability 72 h (Gefitinib): > 10 µM
- IC50, cell viability 72 h (Prexasertib): 0.117 µM
- IC50, cell viability 72 h (Doxorubicin): 0.0686 µM
- IC50, cell viability 72 h (AZD5153): 0.254 µM
- IC50, cell viability 72 h (Lapatinib): 8.92 µM
- IC50, cell viability 72 h (AZD8186): > 10 µM
- IC50, cell viability 72 h (Crizotinib): 3.36 µM
- IC50, cell viability 72 h (Savolitinib): > 1 µM
- IC50, cell viability 72 h (AZD6738): 7.01 µM
- IC50, cell viability 72 h (AZD5991): > 1 µM
- IC50, cell viability 72 h (AZD7648): > 10 µM
- IC50, cell viability 72 h (Taselisib): 2.37 µM
- IC50, cell viability 72 h (Selumetinib): > 10 µM
- IC50, cell viability 72 h (SRA737): > 10 µM
- IC50, cell viability 72 h (MK-2206): > 10 µM
- IC50, cell viability 72 h (Gemcitabine): 0.0926 µM
- IC50, cell viability 72 h [1]: 1.33 µM
- IC50, cell viability 72 h (Olaparib): > 10 µM
- IC50, cell viability 72 h (5-Fluorouracil): > 20 µM

Cell Line: SW948 (Colorectal Carcinoma)
- IC50, cell viability 72 h (Carboplatin): > 10 µM
- IC50, cell viability 72 h (AZD5363): 6.29 µM
- IC50, cell viability 72 h (AZD1775; max 3 µM): 1.39 µM
- IC50, cell viability 72 h (Trametinib): 0.0352 µM
- IC50, cell viability 72 h (Paclitaxel): 0.0299 µM
- IC50, cell viability 72 h (Palbociclib): > 10 µM
- IC50, cell viability 72 h (AZD1390): > 0.3 µM
- IC50, cell viability 72 h (Venetoclax): > 1 µM
- IC50, cell viability 72 h (Dasatinib): > 2 µM
- IC50, cell viability 72 h (SG3199): > 0.001 µM
- IC50, cell viability 72 h (AZD2811): > 1 µM
- IC50, cell viability 72 h (SN-38): > 0.3 µM
- IC50, cell viability 72 h (AZD0156; max 3 µM): > 3 µM
- IC50, cell viability 72 h (AZD4320): > 1 µM
- IC50, cell viability 72 h (Alisertib): 0.0444 µM
- IC50, cell viability 72 h (Etoposide): > 10 µM
- IC50, cell viability 72 h (Gefitinib): > 10 µM
- IC50, cell viability 72 h (Prexasertib): 0.136 µM
- IC50, cell viability 72 h (Doxorubicin): > 1 µM
- IC50, cell viability 72 h (AZD5153): 0.918 µM
- IC50, cell viability 72 h (Lapatinib): > 10 µM
- IC50, cell viability 72 h (AZD8186): > 10 µM
- IC50, cell viability 72 h (Crizotinib): 5.44 µM
- IC50, cell viability 72 h (Savolitinib): > 1 µM
- IC50, cell viability 72 h (AZD6738): > 10 µM
- IC50, cell viability 72 h (AZD5991): > 1 µM
- IC50, cell viability 72 h (AZD7648): > 10 µM
- IC50, cell viability 72 h (Taselisib): 0.343 µM
- IC50, cell viability 72 h (Selumetinib): 1.08 µM
- IC50, cell viability 72 h (SRA737): > 10 µM
- IC50, cell viability 72 h (MK-2206): > 10 µM
- IC50, cell viability 72 h (Gemcitabine): > 0.3 µM
- IC50, cell viability 72 h [1]: 2.47 µM
- IC50, cell viability 72 h (Olaparib): > 10 µM
- IC50, cell viability 72 h (5-Fluorouracil): > 20 µM
